Reference: US20090156646A1, “PYRIDYLPHENOL COMPOUND AND USE THEREOF” (TAKEDA PHARMACEUTICAL COMPANY LIMITED, priority 2005, published 2009)
Structures can show the parent of a compound that is named as a salt.

Assays:
[1] = molecular target: T1, human metastin receptor hOT7T175 (Homo sapiens, UniProt Q969F8, L364H); experiment: binding inhibiting activity: 125I-metastin (40-54) binding to cell membrane fraction of h175 KB34 cells; conditions: room temperature 60 minutes, read-out: binding inhibiting activity, represented by the IC50 value
T1 construct: encoding the entire length of human metastin receptor hOT7T175; expressed in transfected cells; host or cells: CHO/dhFr- cells (ATCC #CRL-9096) stably transfected with pAKKO-hOT7T175; clone h175-16 was used as whole cells for FLIPR
Description: cDNA fragments (SEQ ID NO: 2) encoding the entire length of human metastin receptor hOT7T175 were incorporated into expression vector pAKKO1.11H to produce animal cell expression plasmids pAKKO-hOT7T175. CHO/dhFr-cells (ATCC, #CRL-9096) were seeded onto 6 cm culture dishes (Becton Dickinson) at a density of 0.3×10^6 cells/dish, and cultured in the conditions of 48 hours, 37° C. and 5% CO2. 5 μg pAKKO-hOT7T175 plasmid DNA was transfected to the resultant cells by a known method (described in Example 3 of WO 00/24890) using the Cellphect Transfection Kit (Amersham, #27-9268-01). The DNA-transfected cells were cultured in the Dulbecco's modified Eagle medium (DMEM) (Sigma, #D6046) containing 10% dialyzed FBS (Biowest, #S180D), 1× Non-Essential Amino Acid (Invitrogen, #11140-050) and 50 μg/ml Gentamycin (Invitrogen, #15750-060; and cell strains stably expressing the plasmid genes were selected. The obtained 41 clones were treated with the FLIPR assay (in accordance with the method described in Example 3 of WO 00/24890), and the reactivity to the human metastin […] (Nos. 40 to 54 of the human metastin sequence; Peptide Institute, Inc., #4389-v) was evaluated. In the end, h175 KB34 cell strains were selected. By substantially the same method, h175-16 cell strains were also produced.
The h175 KB34 cells were cultured to be on the stage of 40-50% confluency using a cell factory (Nunc, #164327), and then cells were recovered in the following method.
First, the medium was disposed, and the cells were washed twice with 200 ml EDTA/PBS(−). Another 200 ml of EDTA/PBS(−) was added, and the cells were kept still for 20 minutes at room temperature until being peeled off. The cells were recovered into four 50 ml tubes (Becton Dickinson, #352070), and centrifuged (2,000 rpm, 10 min., 4° C.) by a reduced performance centrifuge (TOMY, RL-101). The supernatant was disposed, and the pellets in the four tubes were each suspended with 10 ml EDTA/PBS(−) and collected into one tube (Becton Dickinson, #352070). The pellet was further centrifuged (2,000 rpm, 10 min., 4° C.). The resultant pellet was suspended with 20 ml ice-cooled homogenizer buffer [10 mM NaHCO3, 2 mM EGTA, 0.2 mM magnesium acetate, 10 μg/ml Leupeptin (Peptide Institute, Inc., #4041), 10 μg/ml E-64 (Peptide Institute, Inc., # 4096), 100 μg/ml o-phenanthroline (Dojindo Laboratories), 90 μg/ml PMSF (Wako Pure Chemical Industries, Ltd.), 10 μg/ml Pepstatin A (Peptide Institute, Inc., #4397), pH7.3]. The cell suspension was homogenized 3 times, each for 30 seconds, using a Polytron homogenizer. The resultant homogenate was centrifuged (2,500 rpm, 10 min, 4° C.) using a high performance refrigerated centrifuge (Hitachi, Ltd., CR26H). The supernatant was recovered into a super-centrifuge tube, and super-centrifuged (30,000 rpm, 60 min, 4° C.) using a super-centrifuge (Hitachi, Ltd., SCP70H). 3 ml homogenizer buffer was added to the resultant pellet, and the pellet was suspended by pipetting. 3 ml glycerol (Wako Pure Chemical Industries, Ltd.) was added to the resultant suspension and diluted 2-folds. The resultant substance was used as a cell membrane fraction of the h175 KB34 cells. Each […] of the membrane fraction was put into a 1.5 ml tube (Eppendorf, #0030120.086), stored in a freezer (−30 C) so as not to be frozen, and used for a binding assay.
An assay buffer was prepared on the day of the test by adding, to each 100 ml of an assay basic buffer [20 mM Tris, 2.5 mM Magnesium Acetate, 2 mM EGTA, pH 7.4], 1 mg Leupeptin (Peptide Institute, Inc., 4041), 1 mg E-64 (Peptide Institute, Inc., 4096), 10 mg o-phenanthroline (Dojindo Laboratories), 9 mg PMSF (Wako Pure Chemical Industries, Ltd.) and 1 mg Pepstatin A (Peptide Institute, Inc., 4397). The prepared assay buffer was stored at 4° C. until being used. When the measurement was to be performed with no BSA, the above-described assay buffer was used. […]

T1 sequence (Q969F8 whole entry L364H): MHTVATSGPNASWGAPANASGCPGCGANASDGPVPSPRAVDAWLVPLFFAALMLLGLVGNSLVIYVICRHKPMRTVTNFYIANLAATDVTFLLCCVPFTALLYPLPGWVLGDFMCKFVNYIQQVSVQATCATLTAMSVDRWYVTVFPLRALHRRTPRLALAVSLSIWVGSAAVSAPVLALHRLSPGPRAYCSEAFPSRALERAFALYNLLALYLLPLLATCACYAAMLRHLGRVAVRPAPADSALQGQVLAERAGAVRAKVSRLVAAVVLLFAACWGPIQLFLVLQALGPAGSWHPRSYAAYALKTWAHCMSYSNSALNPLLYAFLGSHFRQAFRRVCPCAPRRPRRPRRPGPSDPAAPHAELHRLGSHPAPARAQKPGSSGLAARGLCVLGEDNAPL

melting point | IC50 [1] [µM] | SMILES
160 to 167 °C |  | COc1cccc(O)c1-c1cc(-c2cccc(NC(=O)CCN)c2)c(C#N)c(NC(=O)c2ccccc2)n1 (as salt: trifluoroacetate) [Example 52, N-{4-[3-(β-alanylamino)phenyl]-3-cyano-6-(2-hydroxy-6-methoxyphenyl)pyridin-2-yl}benzamide trifluoroacetate]
206 to 209 °C |  | N#Cc1c(-c2cccc(NC(=O)CCN)c2)cc(-c2ccc(Cl)cc2O)nc1NC(=O)c1cccs1 (as salt: trifluoroacetate) [Example 56, N-{4-[3-(β-alanylamino)phenyl]-6-(4-chloro-2-hydroxyphenyl)-3-cyanopyridin-2-yl}thiophene-2-carboxamide trifluoroacetate]
 | ≤ 10 | N#Cc1c(-c2cccc(NC(=O)[C@@H]3CCCC[C@H]3N)c2)cc(-c2ccc(F)cc2O)nc1NC(=O)c1ccco1 (racemic) [Example 277, N-{4-[3-({[(1SR,2SR)-2-aminocyclohexyl]carbonyl}amino)phenyl]-3-cyano-6-(4-fluoro-2-hydroxyphenyl)pyridin-2-yl}-2-furamide hydrochloride]
161 to 162 °C |  | Nc1cccc(-c2cc(NC(=O)c3cccs3)nc(-c3ccccc3O)c2)c1 [Example 25, N-[4-(3-aminophenyl)-6-(2-hydroxyphenyl)pyridin-2-yl]thiophene-2-carboxamide]
259 to 261 °C |  | N#Cc1c(-c2cccc(N)c2)cc(-c2ccccc2O)nc1NC(=O)c1ccccc1 [Example 28, N-[4-(3-aminophenyl)-3-cyano-6-(2-hydroxyphenyl)pyridin-2-yl]benzamide]
236 to 238 °C |  | N#Cc1c(-c2cccc(N)c2)cc(-c2ccccc2O)nc1NC(=O)C1CCCCC1 [Example 29, N-[4-(3-aminophenyl)-3-cyano-6-(2-hydroxyphenyl)pyridin-2-yl]cyclohexanecarboxamide]
220 to 221 °C |  | CC(C)(C)OC(=O)NCCC(=O)Nc1cccc(-c2cc(-c3ccccc3O)nc(NC(=O)c3ccccc3)c2C#N)c1 [Example 30, tert-butyl[3-({3-[2-(benzoylamino)-3-cyano-6-(2-hydroxyphenyl)pyridin-4-yl]phenyl}amino)-3-oxopropyl]carbamate]
 | ≤ 10 | N#Cc1c(-c2cccc(NC(=O)CCN)c2)cc(-c2ccccc2O)nc1NC(=O)c1ccccc1 [Example 31, N-[4-(3-(β-alanylamino)phenyl)-3-cyano-6-(2-hydroxyphenyl)pyridin-2-yl]benzamide trifluoroacetate]
259 to 260 °C |  | N#Cc1c(-c2cccc(N)c2)cc(-c2ccccc2O)nc1NC(=O)c1ccc(Cl)s1 [Example 32, N-[4-(3-aminophenyl)-3-cyano-6-(2-hydroxyphenyl)pyridin-2-yl]-5-chlorothiophene-2-carboxamide]
257 to 260 °C |  | N#Cc1c(-c2cccc(N)c2)cc(-c2ccccc2O)nc1NC(=O)c1ccsc1 [Example 33, N-[4-(3-aminophenyl)-3-cyano-6-(2-hydroxyphenyl)pyridin-2-yl]thiophene-3-carboxamide]
245 to 246 °C |  | CCCNC(=O)c1cccc(-c2cc(-c3ccccc3O)nc(NC(=O)c3cccs3)c2C#N)c1 [Example 34, N-(3-cyano-6-(2-hydroxyphenyl)-4-{3-[(propylamino)carbonyl]phenyl}pyridin-2-yl)thiophene-2-carboxamide]
218 to 219 °C |  | N#Cc1c(-c2cccc(C(=O)NCCO)c2)cc(-c2ccccc2O)nc1NC(=O)c1cccs1 [Example 35, N-[3-cyano-4-(3-{[(2-hydroxyethyl)amino]carbonyl}phenyl)-6-(2-hydroxyphenyl)pyridin-2-yl]thiophene-2-carboxamide]
253 to 254 °C |  | N#Cc1c(-c2cccc(C(=O)N3CCOCC3)c2)cc(-c2ccccc2O)nc1NC(=O)c1cccs1 [Example 36, N-{3-cyano-6-(2-hydroxyphenyl)-4-[3-(morpholin-4-ylcarbonyl)phenyl]pyridin-2-yl}thiophene-2-carboxamide]
230 to 231 °C |  | CN(C)c1cccc(-c2cc(-c3ccccc3O)nc(NC(=O)c3cccs3)c2C#N)c1 [Example 38, N-{3-cyano-4-[3-(dimethylamino)phenyl]-6-(2-hydroxyphenyl)pyridin-2-yl}thiophene-2-carboxamide]
227 to 230 °C |  | CNc1cccc(-c2cc(-c3ccccc3O)nc(NC(=O)c3cccs3)c2C#N)c1 [Example 39, N-{3-cyano-6-(2-hydroxyphenyl)-4-[3-(methylamino)phenyl]pyridin-2-yl}thiophene-2-carboxamide]
 | ≤ 10 | CN(C(=O)CN)c1cccc(-c2cc(-c3ccccc3O)nc(NC(=O)c3cccs3)c2C#N)c1 [Example 41, N-[3-cyano-4-{3-[glycyl(methyl)amino]phenyl}-6-(2-hydroxyphenyl)pyridin-2-yl]thiophene-2-carboxamide dihydrochloride]
 | ≤ 10 | N#Cc1c(-c2cc(NC(=O)CCN)ccc2Cl)cc(-c2ccccc2O)nc1NC(=O)c1cccs1 [Example 42, N-{4-[5-(β-alanylamino)-2-chlorophenyl]-3-cyano-6-(2-hydroxyphenyl)pyridin-2-yl}thiophene-2-carboxamide dihydrochloride]
 | ≤ 10 | N#Cc1c(-c2cccc(NC(=O)CCN)c2)cc(-c2cc(Cl)ccc2O)nc1NC(=O)c1cccs1 [Example 46, N-{4-[3-(β-alanylamino)phenyl]-6-(5-chloro-2-hydroxyphenyl)-3-cyanopyridin-2-yl}thiophene-2-carboxamide trifluoroacetate]
292 to 293 °C |  | N#Cc1c(-c2ccc(N)cc2)cc(-c2ccccc2O)nc1NC(=O)c1cccs1 [Example 48, N-[4-(4-aminophenyl)-3-cyano-6-(2-hydroxyphenyl)pyridin-2-yl]thiophene-2-carboxamide]
209 to 210 °C |  | CC(=O)NCCC(=O)Nc1cccc(-c2cc(-c3ccc(Cl)cc3O)nc(NC(=O)c3cccs3)c2C#N)c1 [Example 59, N-[4-{3-[(N-acetyl-β-alanyl)amino]phenyl}-6-(4-chloro-2-hydroxyphenyl)-3-cyanopyridin-2-yl]thiophene-2-carboxamide]
162 to 164 °C |  | CC(C)(C)OC(=O)c1c(-c2cccc(N)c2)cc(-c2ccccc2O)nc1NC(=O)c1ccccc1 [Example 62, tert-butyl 4-(3-aminophenyl)-2-(benzoylamino)-6-(2-hydroxyphenyl)nicotinate]
247 to 249 °C |  | CC(C)(C)OC(=O)c1c(-c2cccc(NC(=O)CCN)c2)cc(-c2ccccc2O)nc1NC(=O)c1ccccc1 [Example 82, tert-butyl 4-[3-(β-alanylamino)phenyl]-2-(benzoylamino)-6-(2-hydroxyphenyl) nicotinate]
277 to 278 °C (dec.) |  | Cl.N#Cc1c(-c2cccc(NC(=O)CC3CCCCN3)c2)cc(-c2ccc(F)cc2O)nc1NC(=O)c1ccco1 (centres unmarked) [Example 290]
